In US5011831A, “Derivatives of quinolinecarboxylic acid” (Nippon Shinyaku Co. Ltd., priority 1987, dated 1991):
Values after ≈ are worked out from the molar mass of the structure shown. Where two headings read alike, the source gives them in different places.

Tests used:
[1] = tested on: Klebsiella pneumoniae NCTC 9632; assay: MIC, agar plate dilution method; assay type: cell-based
Procedure: (§1) Test Method: In accordance with a standard method by Japan Chemotherapeutic Society [Chemotherapy, 29(1), pages 76-79, 1981], agar plate dilution method was used and the MIC was measured. Thus, bouillon for measuring sensitivity was used and the bacterial liquid cultured at 37° C. for 18 hours was diluted to an extent of 10^6 CFU/ml using said medium. This was inoculated to an agar medium containing drug for measuring sensitivity using a microplanter, cultured at 37° C. for 18 hours, and MIC was measured. Ofloxacin was used for comparison/control.
(§2) The above described test was additionally conducted on the compounds of the examples described below using the same microorganisms.

[2] = tested on: Shigella flexneri 2a EW-10; assay: MIC, agar plate dilution method; assay type: cell-based
Procedure: as §1, §2

[3] = tested on: Bacillus subtilis ATCC 6633; assay: MIC, agar plate dilution method; assay type: cell-based
Procedure: as §1, §2

[4] = tested on: Pseudomonas aeruginosa IFO-3445; assay: MIC, agar plate dilution method; assay type: cell-based
Procedure: as §1, §2

[5] = tested on: Staphylococcus aureus 209-P JC-1; assay: MIC, agar plate dilution method; assay type: cell-based
Procedure: as §1, §2

[6] = tested on: Escherichia coli N1HJ JC-2; assay: MIC, agar plate dilution method; assay type: cell-based
Procedure: as §1, §2

[7] = tested on: Serratia marcescens IFO 3736; assay: MIC, agar plate dilution method; assay type: cell-based
Procedure: as §1, §2

P. aeruginosa E-2 [8] = assay: Therapeutic effect on infections in mice (Table 3); assay type: in vivo, ddY strain male mice; conditions: P. aeruginosa E-2, 7.5×10^4 CFU/mouse i.p.; drug orally once 2 hours after inoculation; survival after one week, Probit
Procedure: (§3) Test method: E. Coli KC-14 and P. aeruginosa E-2 were suspended in 5% mucin and 0.5 ml of the suspension was injected intraperitoneally to ddY strain male mice (body weight: ca. 20 g; four weeks age; 10 mice per group). The amount of the bacteria inoculated was 5.1×10^4 CFU/mouse for E. coli and 7.5×10^4 CFU/mouse for P. aeruginosa. Drug was given orally once after 2 hours of inoculation and, out of the survival rate after one week, ED50 was calculated by a Probit method. As to a comparison/control, ofloxacin was used.

E. Coli KC-14 [9] = assay: Therapeutic effect on infections in mice (Table 3); assay type: in vivo, ddY strain male mice; conditions: E. coli KC-14, 5.1×10^4 CFU/mouse i.p.; drug orally once 2 hours after inoculation; survival after one week, Probit
Procedure: as §3

[10] = tested on: Streptococcus pyogenes S-23; assay: MIC, agar plate dilution method; assay type: cell-based
Procedure: as §1, §2

[11] = tested on: Proteus mirabilis IFO 3849; assay: MIC, agar plate dilution method; assay type: cell-based; conditions: IFO3849, Table 1, 10^6 CFU/ml, 37° C., 18 hours
Procedure: as §1, §2

[12] = tested on: Streptococcus pneumoniae Type I; assay: MIC, agar plate dilution method; assay type: cell-based
Procedure: as §1, §2

P. aeruginosa E-2 [13] = assay: Therapeutic effect on infections in mice, similar test (Table 4); assay type: in vivo, ddY strain male mice; conditions: P. aeruginosa E-2, 1.25×10^5 cfu/mouse
Procedure: as §3
(§4) A similar test was conducted by inoculating E. coli KC-14 (2.5×10^5 cfu/mouse) and P. aeruginosa E-2 (1.25×10^5 cfu/mouse) and the result is given in Table 4.

E. Coli KC-14 [14] = assay: as above; assay type: in vivo, ddY strain male mice; conditions: E. coli KC-14, 2.5×10^5 cfu/mouse
Procedure: as §3, §4

[15] = NCTC9632, 18 h, Table 2, same microorganisms as Table 1
[16] = 2AEW10, 18 h, Table 2, same microorganisms as Table 1
[17] = ATCC6633, 18 h, Table 2, same microorganisms as Table 1
[18] = IFO3445, 18 h, Table 2, same microorganisms as Table 1
[19] = 18 h, Table 2, same microorganisms as Table 1
[20] = N1HJJC2, 18 h, Table 2, same microorganisms as Table 1, read-out: MIC
[21] = IFO3736, 18 h, Table 2, same microorganisms as Table 1
[22] = S23, Table 1, 10^6 CFU/ml, 37° C., 18 hours
[23] = NCTC9632, Table 1, 10^6 CFU/ml, 37° C., 18 hours
[24] = 2AEW10, Table 1, 10^6 CFU/ml, 37° C., 18 hours
[25] = ATCC6633, Table 1, 10^6 CFU/ml, 37° C., 18 hours
[26] = IFO3445, Table 1, 10^6 CFU/ml, 37° C., 18 hours
[27] = Table 1, 10^6 CFU/ml, 37° C., 18 hours
[28] = IFO3736, Table 1, 10^6 CFU/ml, 37° C., 18 hours

| Compound | MIC [1, 15] [µg/mL] | MIC [2, 16] [µg/mL] | MIC [3, 17] [µg/mL] | MIC [4, 18] [µg/mL] | MIC [5, 19] [µg/mL] | MIC [6, 20] [µg/mL] | MIC [7, 21] [µg/mL] | ED50 (P. aeruginosa E-2 [8]) [mg/mouse] | ED50 (E. Coli KC-14 [9]) [mg/mouse] | ED50 (P. aeruginosa E-2 [13]) [mg/mouse] | ED50 (E. Coli KC-14 [14]) [mg/mouse] | also measured |
| --- | --- | --- | --- | --- | --- | --- | --- | --- | --- | --- | --- | --- |
| O=C(O)c1c2n(c3c(F)c(N4CCNCC4)c(F)cc3c1=O)CS2 [Example 5, 6,8-Difluoro-4-oxo-7-(1-piperazinyl)-4-oxo-4H-[1,3]thiazeto[3,2-a]quinoline-3-carboxylic acid] | 0.025 (≈ 0.0708 µM) | 0.0125 (≈ 0.0354 µM) | 0.1 (≈ 0.283 µM) | 0.2 (≈ 0.566 µM) | 0.1 (≈ 0.283 µM) | 0.025 (≈ 0.0708 µM) | 0.05 (≈ 0.142 µM) |  |  |  |  |  |
| CC1Sc2c(C(=O)O)c(=O)c3cc(F)c(N4CCNCC4)c(F)c3n21 (centres unmarked) [Example 2, 6,8-Difluoro-1-methyl-4-oxo-7-(1-piperazinyl)-4H-[1,3]thiazeto[3,2-a]quinoline-3-carboxylic acid] |  |  |  |  |  |  |  | 0.154 | 0.0078 | 0.156 | 0.013 | MIC [10, 22]: 0.39 µg/mL (≈ 1.06 µM); MIC [1, 23]: 0.0125 µg/mL (≈ 0.034 µM); MIC [2, 24]: ≤ 0.00625 µg/mL; MIC [3, 25]: 0.05 µg/mL (≈ 0.136 µM); MIC [4, 26]: 0.1 µg/mL (≈ 0.272 µM); MIC [5, 27]: 0.1 µg/mL (≈ 0.272 µM); MIC [11]: 0.025 µg/mL (≈ 0.068 µM); MIC [12, 27]: 0.39 µg/mL (≈ 1.06 µM); MIC ([6]; N1HJJC2, 18 h): 0.0125 µg/mL (≈ 0.034 µM); MIC [7, 28]: 0.1 µg/mL (≈ 0.272 µM) |
| NC1CCN(c2c(F)cc3c(=O)c(C(=O)O)c4n(c3c2F)CS4)C1 (centres unmarked) [Example 9, 7-(3-Amino-1-pyrrolidinyl)-6,8-difluoro-4-oxo-4H-[1,3]thiazeto[3,2-a]quinoline-3-carboxylic acid] | 0.0125 (≈ 0.0354 µM) | ≤ 0.00625 | 0.1 (≈ 0.283 µM) | 0.0125 (≈ 0.0354 µM) | 0.025 (≈ 0.0708 µM) | 0.0125 (≈ 0.0354 µM) | 0.1 (≈ 0.283 µM) |  |  |  |  |  |
| CC1Sc2c(C(=O)O)c(=O)c3cc(F)c(N4CCN(C)CC4)c(F)c3n21 (centres unmarked) [Example 4, 6,8-Difluoro-1-methyl-7-(4-methyl-1-piperazinyl)-4-oxo-[1,3]thiazeto[3,2-a]quinoline-3-carboxylic acid] | 0.025 (≈ 0.0655 µM) | 0.0125 (≈ 0.0328 µM) | 0.05 (≈ 0.131 µM) | 0.2 (≈ 0.524 µM) | 0.2 (≈ 0.524 µM) | 0.05 (≈ 0.131 µM) | 0.2 (≈ 0.524 µM) |  |  | 0.177 | 0.011 | MIC ([10]; S23, 18 h, Table 2, same microorganisms as Table 1): 0.39 µg/mL (≈ 1.02 µM); MIC [12, 19]: 0.39 µg/mL (≈ 1.02 µM) |
| CCOC(=O)c1c2n(c3c(F)c(N4CCNCC4)c(F)cc3c1=O)C(C)S2 (centres unmarked) [Example 1, Ethyl 6,8-difluoro-1-methyl-4-oxo-7-(1-piperazinyl)-4H-[1,3]thiazeto[3,2-a]quinoline-3-carboxyate] |  |  |  |  |  |  |  | 0.09 | 0.0046 |  |  |  |
| CCOC(=O)c1c2n(c3c(F)c(N4CCNCC4)c(F)cc3c1=O)C(c1ccc(F)cc1)S2 (centres unmarked) [Example 25, Ethyl 6,8-difluoro-1-(4-fluorophenyl)-4-oxo-7-(1-piperazinyl)-4H-[1,3]thiazeto[3,2-a]quinoline-3-carboxylate] |  | 0.05 (≈ 0.105 µM) | 0.1 (≈ 0.21 µM) | 0.39 (≈ 0.82 µM) | 0.2 (≈ 0.421 µM) | 0.1 (≈ 0.21 µM) | 1.56 (≈ 3.28 µM) |  |  |  |  |  |
| O=C(O)c1c2n(c3c(F)c(N4CCNCC4)c(F)cc3c1=O)C(c1ccccc1)S2 (centres unmarked) [Example 21, 6,8-Difluoro-4-oxo-1-phenyl-7-(1-piperazinyl)-4H-[1,3]thiazeto[3,2-a]quinoline-3-carboxylic acid] | ≤ 0.00625 | 0.05 (≈ 0.116 µM) | 0.1 (≈ 0.233 µM) | 0.39 (≈ 0.908 µM) | 0.2 (≈ 0.466 µM) | 0.1 (≈ 0.233 µM) | 1.56 (≈ 3.63 µM) |  |  |  |  |  |
| CC1COc2c(N3CCN(C)CC3)c(F)cc3c(=O)c(C(=O)O)cn1c23 (racemic) [Ofloxacin, ofloxacin, reference compound] |  |  |  |  |  |  |  | 0.692 | 0.011 | 0.521 | 0.052 | MIC [10, 22]: 1.56 µg/mL (≈ 4.32 µM); MIC [1, 23]: 0.05 µg/mL (≈ 0.138 µM); MIC [2, 24]: 0.025 µg/mL (≈ 0.0692 µM); MIC [3, 25]: 0.1 µg/mL (≈ 0.277 µM); MIC [4, 26]: 1.56 µg/mL (≈ 4.32 µM); MIC [5, 27]: 0.39 µg/mL (≈ 1.08 µM); MIC [11]: 0.39 µg/mL (≈ 1.08 µM); MIC [12, 27]: 1.56 µg/mL (≈ 4.32 µM); MIC ([6]; N1HJJC2, Table 1, 10^6 CFU/ml, 37° C., 18 hours, read-out: MIC): 0.1 µg/mL (≈ 0.277 µM); MIC [7, 28]: 0.78 µg/mL (≈ 2.16 µM) |
| CN1CCN(c2c(F)cc3c(=O)c(C(=O)O)c4n(c3c2F)CS4)CC1 [Example 7, 6,8-Difluoro-7-(4-methyl-1-piperazinyl)-4-oxo-4H-[1,3]thiazeto[3,2-a]quinoline-3-carboxylic acid] | 0.0125 (≈ 0.034 µM) | 0.025 (≈ 0.068 µM) | 0.05 (≈ 0.136 µM) | 0.39 (≈ 1.06 µM) | 0.2 (≈ 0.544 µM) | 0.05 (≈ 0.136 µM) | 0.1 (≈ 0.272 µM) |  |  | 0.263 | 0.014 |  |
